Source: US5641789A, “Sulfonamide derivatives of benzenefused hydroxy substituted cycloalkyl and heterocyclic ring compounds” (Pfizer Inc., priority 1995, dated 1997)

System: PAF lethality in CD1 mice
Test: PAF lethality assay
Assay type: in vivo
Conditions: Mus musculus; positive control; oral dosing 45 minutes before i.v. PAF; percent mortality compared to controls
Method: To evaluate the active compounds of the present invention, in vivo, they are tested by the so-called PAF lethality assay procedure: Materials:
Mice: CD1 males, all approximately the same weight (about 26 grams), 12 per group.
Vehicle for oral drug dosing: EES (5% ethanol, 5% emulphor, 90% saline). Stored at room temperature.
Drugs: For routine screening at 50 mg/kg, 20 mg drug is dissolved in 4 ml EES, using sonication in a sonicator bath or grinding in a Ten Broeck (trademark) grinder to dissolve drug if necessary. If solubility is still a problem, the drug is used as a suspension.
Vehicle for i.v. Injection: Saline with 2.5 mg/ml Bovine Serum Albumin (BSA, Sigma #A4378) and 0.05 mg/ml Propranolol (Sigma #P0884). Prepared fresh daily and kept at room temperature.
Platelet Activating Factor (PAF): A […] stock solution is prepared by dissolving 1 mg PAF (Calbiochem #429460) in 0.18 ml ethanol. This stored at -20° C. and is diluted in vehicle (see above) the day of use. The concentration of PAF used is calibrated so that when injected at 0.1 ml/10 grams body weight, it will kill approximately 80% of untreated controls. This is usually about […] (a 1 to 2034 dilution from stock). […]
45 minutes before PAF injection, mice are treated orally with drug using 0.1 ml/10 grams body weight. […] Results are expressed as percent mortality as compared to controls. […]

O=C1CCN(c2ccccc2)N1 [Phenidone]
ED50: ~25 mg/kg
